These results are taken from US8912176B2 (Evotec AG, priority 2009, dated 2014).

Structures are written as SMILES.

This experiment addresses human H3 receptor (Homo sapiens, UniProt Q9Y5N1). Nature of the experiment: cAMP quantification assay for human H3 receptor (DiscoveRx cAMP XS+).

Sequence of human H3 receptor (Q9Y5N1 whole entry): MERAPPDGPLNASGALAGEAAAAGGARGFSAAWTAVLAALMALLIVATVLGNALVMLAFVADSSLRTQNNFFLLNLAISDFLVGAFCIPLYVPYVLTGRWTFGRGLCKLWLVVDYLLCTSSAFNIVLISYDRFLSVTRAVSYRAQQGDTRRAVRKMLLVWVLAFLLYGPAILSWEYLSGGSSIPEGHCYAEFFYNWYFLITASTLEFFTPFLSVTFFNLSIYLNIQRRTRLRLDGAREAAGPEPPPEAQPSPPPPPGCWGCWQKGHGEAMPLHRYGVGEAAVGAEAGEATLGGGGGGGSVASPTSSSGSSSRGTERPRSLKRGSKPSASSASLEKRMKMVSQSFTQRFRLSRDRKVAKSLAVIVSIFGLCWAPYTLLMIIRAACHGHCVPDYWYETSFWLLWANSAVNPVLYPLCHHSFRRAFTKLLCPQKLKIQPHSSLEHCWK

With `O=C(c1ccc(Oc2ccccc2)cc1)N1CC(C(=O)N2CCCN(C3CCC3)CC2)C1` [Example 39, 1-cyclobutyl-4-({1-[(4-phenoxyphenyl)carbonyl]azetidin-3-yl}carbonyl)-1,4-diazepane], the IC50 was < 0.05 µM.

Consider `O=C(c1ccc(-n2cccn2)cc1)N1CC(C(=O)N2CCCN(C3CCC3)CC2)C1` [Example 40, 1-cyclobutyl-4-[(1-{[4-(1H-pyrazol-1-yl)phenyl]carbonyl}azetidin-3-yl)carbonyl]-1,4-diazepane], for which the concentration for half-maximal inhibition (IC50) was < 0.05 µM.

Consider `Cc1noc(-c2ccc(C(=O)N3CC(C(=O)N4CCCN(C5CCC5)CC4)C3)cc2)n1` [Example 41, 1-cyclobutyl-4-[(1-{[4-(3-methyl-1,2,4-oxadiazol-5-yl)phenyl]carbonyl}azetidin-3-yl)carbonyl]-1,4-diazepane], for which the IC50 was < 0.05 µM.

On to `CC1(C)COC(c2ccc(C(=O)N3CC(C(=O)N4CCCN(C5CCC5)CC4)C3)cc2)=N1` [Example 42, 1-cyclobutyl-4-[(1-{[4-(4,4-dimethyl-4,5-dihydro-1,3-oxazol-2-yl)phenyl]carbonyl}azetidin-3-yl)carbonyl]-1,4-diazepane], for which the IC50 is < 0.05 µM.

On to `Cc1ccc(CC(=O)N2CC(C(=O)N3CCCN(C4CCC4)CC3)C2)cn1` [Example 43, 1-cyclobutyl-4-({1-[(6-methylpyridin-3-yl)acetyl]azetidin-3-yl}carbonyl)-1,4-diazepane], for which the IC50 is < 0.05 µM.

With `O=C(c1ccc(-c2cccnc2)cc1)N1CC(C(=O)N2CCCN(C3CCC3)CC2)C1` [Example 44, 1-cyclobutyl-4-({1-[(4-pyridin-3-ylphenyl)carbonyl]azetidin-3-yl}carbonyl)-1,4-diazepane], the IC50 is < 0.05 µM.

On to `O=C(c1ccc(-c2ccncc2)cc1)N1CC(C(=O)N2CCCN(C3CCC3)CC2)C1` [Example 45, 1-cyclobutyl-4-({1-[(4-pyridin-4-ylphenyl)carbonyl]azetidin-3-yl}carbonyl)-1,4-diazepane], for which the IC50 was < 0.05 µM.

For `Cc1nc(-c2cccc(C(=O)N3CC(C(=O)N4CCCN(C5CCC5)CC4)C3)c2)cs1` [Example 46, 1-cyclobutyl-4-[(1-{[3-(2-methyl-1,3-thiazol-4-yl)phenyl]carbonyl}azetidin-3-yl)carbonyl]-1,4-diazepane], the IC50 is < 0.05 µM.

`O=C(CC1CCOCC1)N1CC(C(=O)N2CCCN(C3CCC3)CC2)C1` [Example 53, 1-cyclobutyl-4-{[1-(tetrahydro-2H-pyran-4-ylacetyl)azetidin-3-yl]carbonyl}-1,4-diazepane] gave an IC50 of 0.1 to 5 µM.

Regarding `O=C(Cc1ccc(Cl)cc1)N1CC(C(=O)N2CCCN(C3CCC3)CC2)C1` [Example 54, 1-({1-[(4-chlorophenyl)acetyl]azetidin-3-yl}carbonyl)-4-cyclobutyl-1,4-diazepane], the IC50 was < 0.05 µM.

Consider `CS(=O)(=O)c1ccc(C(=O)N2CC(C(=O)N3CCCN(C4CCC4)CC3)C2)cc1` [Example 55, 1-cyclobutyl-4-[(1-{[4-(methylsulfonyl)phenyl]carbonyl}azetidin-3-yl)carbonyl]-1,4-diazepane], for which the IC50 was < 0.05 µM.

On to `O=C(NCC1CCCCC1)N1CC(C(=O)N2CCCN(C3CCC3)CC2)C1` [Example 56, 3-[(4-cyclobutyl-1,4-diazepan-1-yl)carbonyl]-N-(cyclohexylmethyl)azetidine-1-carboxamide], for which the IC50 was < 0.05 µM.

For `O=C(NCC1CCOCC1)N1CC(C(=O)N2CCCN(C3CCC3)CC2)C1` [Example 57, 3-[(4-cyclobutyl-1,4-diazepan-1-yl)carbonyl]-N-(tetrahydro-2H-pyran-4-ylmethyl)azetidine-1-carboxamide], the IC50 is < 0.05 µM.

Consider `O=C(NCc1ccc(F)cc1)N1CC(C(=O)N2CCCN(C3CCC3)CC2)C1` [Example 58, 3-[(4-cyclobutyl-1,4-diazepan-1-yl)carbonyl]-N-(4-fluorobenzyl)azetidine-1-carboxamide], for which the IC50 is < 0.05 µM.

With `N#Cc1ccc(NC(=O)N2CC(C(=O)N3CCCN(C4CCC4)CC3)C2)cc1` [Example 59, N-(4-cyanophenyl)-3-[(4-cyclobutyl-1,4-diazepan-1-yl)carbonyl]azetidine-1-carboxamide], the IC50 is < 0.05 µM.

For `CN(CC1CCCCC1)C(=O)N1CC(C(=O)N2CCCN(C3CCC3)CC2)C1` [Example 60, 3-[(4-cyclobutyl-1,4-diazepan-1-yl)carbonyl]-N-(cyclohexylmethyl)-N-methylazetidine-1-carboxamide], the IC50 is < 0.05 µM.

`CN(CC1CCOCC1)C(=O)N1CC(C(=O)N2CCCN(C3CCC3)CC2)C1` [Example 61, 3-[(4-cyclobutyl-1,4-diazepan-1-yl)carbonyl]-N-methyl-N-(tetrahydro-2H-pyran-4-ylmethyl)azetidine-1-carboxamide]: the IC50 was < 0.05 µM.

For the molecule `CN(Cc1ccc(F)cc1)C(=O)N1CC(C(=O)N2CCCN(C3CCC3)CC2)C1` [Example 62, 3-[(4-cyclobutyl-1,4-diazepan-1-yl)carbonyl]-N-(4-fluorobenzyl)-N-methylazetidine-1-carboxamide], the half-maximal inhibitory concentration (IC50) is < 0.05 µM.

As to `CN(C(=O)N1CC(C(=O)N2CCCN(C3CCC3)CC2)C1)c1ccc(C#N)cc1` [Example 63], the IC50 is < 0.05 µM.

Consider `CN(Cc1ccc(C#N)cc1)C(=O)N1CC(C(=O)N2CCCN(C3CCC3)CC2)C1` [Example 64, N-(4-cyanobenzyl)-3-[(4-cyclobutyl-1,4-diazepan-1-yl)carbonyl]-N-methylazetidine-1-carboxamide], for which the IC50 was < 0.05 µM.

Turning to `O=C(C1CN(C(=O)N2CCc3ccccc3C2)C1)N1CCCN(C2CCC2)CC1` [Example 65, 2-({3-[(4-cyclobutyl-1,4-diazepan-1-yl)carbonyl]azetidin-1-yl}carbonyl)-1,2,3,4-tetrahydroisoquinoline], the IC50 is < 0.05 µM.

Regarding `N#Cc1ccc(CNC(=O)N2CC(C(=O)N3CCCN(C4CCC4)CC3)C2)cc1` [Example 66, N-(4-cyanobenzyl)-3-[(4-cyclobutyl-1,4-diazepan-1-yl)carbonyl]azetidine-1-carboxamide], the IC50 is < 0.05 µM.

Turning to `O=C(Oc1ccc(Cl)cc1)N1CC(C(=O)N2CCCN(C3CCC3)CC2)C1` [Example 67, 4-chlorophenyl 3-[(4-cyclobutyl-1,4-diazepan-1-yl)carbonyl]azetidine-1-carboxylate], the IC50 is < 0.05 µM.

Regarding `N#Cc1ccc(OC(=O)N2CC(C(=O)N3CCCN(C4CCC4)CC3)C2)cc1` [Example 69, 4-cyanophenyl 3-[(4-cyclobutyl-1,4-diazepan-1-yl)carbonyl]azetidine-1-carboxylate], the IC50 is < 0.05 µM.

Take `CC(=O)N1CC(C(=O)N2CCCN(C3CCC3)CC2)C1` [Example 70, 1-[(1-acetylazetidin-3-yl)carbonyl]-4-cyclobutyl-1,4-diazepane]: the IC50 was < 0.05 µM.

Take `CCC(=O)N1CC(C(=O)N2CCCN(C3CCC3)CC2)C1` [Example 71, 1-cyclobutyl-4-[(1-propanoylazetidin-3-yl)carbonyl]-1,4-diazepane]: the IC50 is < 0.05 µM.

Regarding `O=C(c1ccc(-n2ccnc2)cc1)N1CC(C(=O)N2CCCN(C3CCC3)CC2)C1` [Example 72, 1-cyclobutyl-4-[(1-{[4-(1H-imidazol-1-yl)phenyl]carbonyl}azetidin-3-yl)carbonyl]-1,4-diazepane], the IC50 is < 0.05 µM.

With `O=C(c1ccc(-n2cncn2)cc1)N1CC(C(=O)N2CCCN(C3CCC3)CC2)C1` [Example 73, 1-cyclobutyl-4-[(1-{[4-(1H-1,2,4-triazol-1-yl)phenyl]carbonyl}azetidin-3-yl)carbonyl]-1,4-diazepane], the IC50 was < 0.05 µM.

For `O=C(c1ccc(Cn2cncn2)cc1)N1CC(C(=O)N2CCCN(C3CCC3)CC2)C1` [Example 74, 1-cyclobutyl-4-[(1-{[4-(1H-1,2,4-triazol-1-ylmethyl)phenyl]carbonyl}azetidin-3-yl)carbonyl]-1,4-diazepane], the IC50 was < 0.05 µM.

Regarding `Cc1cc(C(=O)N2CC(C(=O)N3CCCN(C4CCC4)CC3)C2)ccn1` [Example 75, 1-cyclobutyl-4-({1-[(2-methylpyridin-4-yl)carbonyl]azetidin-3-yl}carbonyl)-1,4-diazepane], the IC50 was < 0.05 µM.

For `CC(C)(O)c1ccc(C(=O)N2CC(C(=O)N3CCCN(C4CCC4)CC3)C2)cn1` [Example 76, 2-[5-({3-[(4-cyclobutyl-1,4-diazepan-1-yl)carbonyl]azetidin-1-yl}carbonyl)pyridin-2-yl]propan-2-ol], the IC50 was < 0.05 µM.

For the molecule `CNC(=O)c1ccc(C(=O)N2CC(C(=O)N3CCCN(C4CCC4)CC3)C2)cn1` [Example 77, 5-({3-[(4-cyclobutyl-1,4-diazepan-1-yl)carbonyl]azetidin-1-yl}carbonyl)-N-methylpyridine-2-carboxamide], the half-maximal inhibitory concentration (IC50) was < 0.05 µM.

For the molecule `O=C(c1ccc(-n2cncn2)c(F)c1)N1CC(C(=O)N2CCCN(C3CCC3)CC2)C1` [Example 78, 1-cyclobutyl-4-[(1-{[3-fluoro-4-(1H-1,2,4-triazol-1-yl)phenyl]carbonyl}azetidin-3-yl)carbonyl]-1,4-diazepane], the IC50 was < 0.05 µM.

With `Cc1ccc(C(=O)N2CC(C(=O)N3CCCN(C(C)C)CC3)C2)cn1` [Example 79, 1-(1-methylethyl)-4-({1-[(6-methylpyridin-3-yl)carbonyl]azetidin-3-yl}carbonyl)-1,4-diazepane], the IC50 is 0.1 to 5 µM.

As to `CCN1CCCN(C(=O)C2CN(C(=O)c3ccc(C)nc3)C2)CC1` [Example 80, 1-ethyl-4-({1-[(6-methylpyridin-3-yl)carbonyl]azetidin-3-yl}carbonyl)-1,4-diazepane], the IC50 was < 0.05 µM.

Regarding `Cc1ccc(C(=O)N2CC(C(=O)N3CCCN(C4CCCC4)CC3)C2)cn1` [Example 81, 1-cyclopentyl-4-({1-[(6-methylpyridin-3-yl)carbonyl]azetidin-3-yl}carbonyl)-1,4-diazepane], the IC50 is < 0.05 µM.

As to `Cc1ccc(C(=O)N2CC(C(=O)N3CCCN(C4CCCCC4)CC3)C2)cn1` [Example 82, 1-cyclohexyl-4-({1-[(6-methylpyridin-3-yl)carbonyl]azetidin-3-yl}carbonyl)-1,4-diazepane], the IC50 is < 0.05 µM.

The molecule `Cc1ccc(C(=O)N2CC(C(=O)N3CCCN(CC4CC4)CC3)C2)cn1` [Example 83, 1-(cyclopropylmethyl)-4-({1-[(6-methylpyridin-3-yl)carbonyl]azetidin-3-yl}carbonyl)-1,4-diazepane] registered a half-maximal inhibitory concentration (IC50) of 0.1 to 5 µM.
